Laboratory results published in US20150157588A1, “Pharmaceutical Composition Comprising Amino-Phenyl-Acetic Acid Octadec-(Z)-9-enyl Ester and Use Thereof for Treating Tumors” (Yeda Research and Development Co., Ltd., priority 2012, published 2015).

Legend:
[1] = tested on: unstimulated CD3 positive T cells; assay: Microarray gene expression, unstimulated T cells; type: cell-based, human; conditions: for Fold change C16orf7: 205781_at; for Fold change TNFRSF17: 206641_at; for Fold change LILRB2 /// LILRB3: 210784_x_at; for Fold change CLEC11A: 211709_s_at; for Fold change WDR33: 218851_s_at
Method: CD3 positive T cells were extracted from a healthy donor according to a standard protocol, and seeded in T cell medium including RPMI, 10% fetal calf serum, sodium pyruvate, L-Glutamine, and Penicillin/Streptomycin. Following an overnight incubation with medium, the cells were treated by incubating for 2 hours at 37° C. with amino-phenyl-acetic acid octadec-(Z)-9-enyl ester at a concentration of 10 micrograms/ml in a final volume of 10 ml in T-cell medium with or without 0.05% ethanol. After incubation, half the cells from each treatment were centrifuged and 2 ml of Tri-reagent (Sigma) were added to the pellet. The other half of the cells from each treatment were transferred to anti-CD3 antibody coated 24 well plates for an overnight incubation at 37° C. Coating plates with an anti-CD3 antibody was carried out by incubating with 2 micrograms/ml of OKT3 anti-CD3 antibody overnight at 4° C., washing three times with PBS and blocking with filtered 1% Bovine Serum Albumin for 1 hour. After activation with anti-CD3 antibody, cells were centrifuged and 2 ml of Tri-reagent were added to the pellet.
RNA was extracted from unstimulated cells and from cells activated with anti-CD3 according to standard protocols and used for hybridization with a Human Genome U133A 2.0 (Affymetrix, Catalogue number 900468), according to the manufacturer's instructions. The results of the hybridization were read by a GeneChip scanner 3000 (Affymetrix) and analyzed by QuantArray (GSI lumonics).
The effects of amino-phenyl-acetic acid octadec-(Z)-9-enyl ester in ethanol solution or in an aqueous vehicle (hereinafter termed “in PBS”) on gene expression in unstimulated T cells and T cells activated by anti-CD3 antibody were compared by microarray analysis.

[2] = tested on: Jurkat transformed T cell line; assay: Apoptosis by FACS, hypo-diploid nuclei PI staining, Jurkat cells; type: cell-based, human; conditions: Jurkat tumor line cells; 10 μg in ethanol solution
Method: (§1) White bars (left bar of each pair) represent cells treated with 10 μg of amino-phenyl-acetic acid octadec-(Z)-9-enyl ester in ethanol solution, and black bars (right bar of each pair) represent cells treated with 10 μg of the control molecule 4-methyl-piperazino-acetic acid ethyl ester in ethanol solution. The two bars on the left represent freshly isolated T cells and the two bars on the right represent transformed Jurkat cells.
(§2) B or T-cell apoptosis was detected by flow cytometry. Briefly, purified cells were seeded in 24 well plates, 5×10^5 per well, and incubated for 48 h at 37° C. 5% CO2 in the presence of HSP60 (heat shock protein 60) at the indicated concentration of amino-phenyl-acetic acid octadec-(Z)-9-enyl ester. […] The cells were then subjected to flow cytometric analysis; for each sample 10,000 were collected and cell-cycle distribution was analyzed according to relative DNA content (PI staining). […] The cells were then collected, stained by APO-DIRECT TUNNEL kit (Phnxflow, CITY, Calif., USA); mitochondrial potential was measured by DePsipher (R&D Systems, Minneapolis, Minn.) according to the manufacturer's procedure. Intracellular caspase activity was measured by Apostat kit (R&D Systems), according to the manufacturer's procedure. The cells were analyzed by Flow cytometry using FACSort (Becton Dickinson) and CellQuest software (Becton Dickinson).

[3] = tested on: human peripheral blood T cells; assay: Apoptosis by FACS, hypo-diploid nuclei PI staining, healthy T cells; type: cell-based; conditions: 10 μg in ethanol solution, versus control molecule
Method: as §1, §2

[4] = in ethanol solution vs untreated
[5] = in ethanol solution vs untreated, data not shown

With CCCCCCCC/C=C\CCCCCCCCOC(=O)C(N)c1ccccc1 (centres unmarked) [amino-phenyl-acetic acid octadec-(Z)-9-enyl ester] the “Fold change SYMPK” value ([1]; 32402_s_at, in ethanol solution vs in PBS) was 2.03, the “Fold change HEY1” value ([1]; 44783_s_at, in ethanol solution vs untreated) was 2.11 and the “Fold change TPM2” value ([1]; 204083_s_at, in ethanol solution vs untreated) was 2.39. For the same compound, the “Fold change CDC25A” value ([1]; 204695_at, in ethanol solution vs in PBS) was 1.94, the “Fold change EPHB6” value ([1]; 204718_at, in ethanol solution vs in PBS) was 2.019 and the “Fold change RRAD” value ([1]; 204802_at, in ethanol solution vs in PBS) was 2.27. The “Fold change C16orf7” value ([1]; in ethanol solution vs in PBS) was 2.54, the “Fold change C16orf7” value [1, 4] was 2.15 and the “Fold change RASA3” value ([1]; 206221_at, in PBS vs untreated) was −2.23. For the same compound, the “Fold change FLJ23556” value ([1]; 206548_at, in ethanol solution vs in PBS) was 1.94, the “Fold change TNFRSF17” value ([1]; in ethanol solution vs in PBS) was 2.08 and the “Fold change TNFRSF17” value [1, 4] was 2.06. For the same compound, the “Fold change SPAG9” value ([1]; 206748_s_at, in PBS vs untreated) was −1.81, the “Fold change CRTC1” value ([1]; 207159_x_at, in ethanol solution vs in PBS) was 1.96 and the “Fold change TSPAN4” value ([1]; 209263_x_at, in ethanol solution vs in PBS) was 2.24. For the same compound, the “Fold change SF3A2” value ([1]; 209381_x_at, in ethanol solution vs untreated) was 1.95, the “Fold change TBC1D22A” value ([1]; 210144_at, in ethanol solution vs untreated) was 2.03 and the “Fold change LILRB2 /// LILRB3” value ([1]; in PBS vs untreated) was −1.84. The “Fold change LILRB2 /// LILRB3” value ([1]; in ethanol solution vs in PBS) was 2.00, the “Fold change CLEC11A” value ([1]; in ethanol solution vs in PBS) was 2.10 and the “Fold change CLEC11A” value [1, 4] was 2.19. For the same compound, the “Fold change BOP1 /// LOC727967” value ([1]; 212563_at, in ethanol solution vs in PBS) was 1.94, the “Fold change ID2 /// ID2B” value ([1]; 213931_at, in ethanol solution vs in PBS) was 2.04 and the “Fold change MCL1” value ([1]; 214057_at, in ethanol solution vs untreated) was 2.12. The “Fold change S100A8” value ([1]; 214370_at, in ethanol solution vs untreated) was 1.9, the “Fold change MTMR1” value ([1]; 214975_s_at, in PBS vs untreated) was −2.41 and the “Fold change probeset 215450_at” value ([1]; 215450_at, in ethanol solution vs untreated) was 1.98. The “Fold change ARPC4” value ([1]; 217817_at, in ethanol solution vs untreated) was 2.03, the “Fold change CENPT” value ([1]; 218148_at, in ethanol solution vs untreated) was 1.94 and the “Fold change CLN6” value ([1]; 218161_s_at, in ethanol solution vs in PBS) was 1.94. For the same compound, the “Fold change IGF2BP2” value ([1]; 218847_at, in ethanol solution vs untreated) was 2.02, the “Fold change WDR33” value ([1]; in ethanol solution vs in PBS) was 2.79 and the “Fold change WDR33” value [1, 4] was 2.32. The “Fold change IGHD” value ([1]; 222285_at, in ethanol solution vs untreated) was 1.98, the “Fold change probeset 222376_at” value ([1]; 222376_at, in ethanol solution vs untreated) was 2.11 and the up-regulated genes ([1]; in PBS vs untreated) was “no significantly up-regulated genes”. The “number of down-regulated genes” value ([1]; in ethanol solution compared with in PBS) was 497 genes, the “fold down-regulation of the down-regulated genes” value [1, 5] was 2-18 fold and the “number of down-regulated genes” value [1, 5] was 573 genes. For the same compound, the apoptosis [2] was 100% and the apoptosis [3] was “no more apoptosis than with a control molecule”.
